Assay results taken from patent US20230103142A1, “SMALL MOLECULE REGULATORS OF NOTCH1 AND USES THEREOF” (THE PENN STATE RESEARCH FOUNDATION, priority 2020, published 2023).
Residues, ends and D or L forms follow the SMILES beside them. *: point of attachment. Cbz = O=C(OCc1ccccc1)*

What was measured:
ubiquitin in ALDH+ cells = assay: ubiquitin expression; assay type: cell-based
From the text: Commercially available positive and negative controls were used for these experiments.

HT1376 cells [1] = assay: MTT cell viability assay; assay type: cell-based
Method: (§1) Cell culture and viability assay. […] Cell lines were maintained in Eagle's Minimum Essential Medium at 37° C. and 5% CO2. […] TCCSUP and HT1376 cells were treated with varying concentrations of ASR488 (0.2-12.5 μM) for 24, 48, and 72 h.

TCCSUP cells [2] = assay: MTT cell viability assay; assay type: cell-based
Method: as §1

HT1376 cells [3] = assay: Annexin V-FITC/PI apoptosis flow cytometry; assay type: cell-based; conditions: HT1376, 24 h treatment
Method: (§2) Detection of apoptosis by flow cytometry and immunoblotting. Annexin V-fluorescein isothiocyanate (FITC) against propidium iodide (PI) assay (FITC Annexin V Apoptosis Detection Kit I, BD Pharminogen, San Diego, Calif., USA) was used for detecting apoptosis as described previously. Total protein extracts from TCCSUP cells were prepared with the Mammalian Protein Extraction Reagent (Thermo Scientific, Rockford, Ill., USA) according to the manufacturer's instructions. Western blotting was performed using specific antibodies against Cleaved PARP (Cat #5625), BAX (Cat #5023) (Cell signaling Technology), and β-actin (Santa Cruz Biotechnologies, Dallas, Tex., USA). The positive bands were detected using enhanced chemiluminescence.

TCCSUP cells [4] = assay: Annexin V-FITC/PI apoptosis flow cytometry; assay type: cell-based; conditions: 24 h treatment
Method: as §2

TCCSUP cells [5] = assay: RNA-seq differential gene expression analysis; assay type: cell-based
From the text: RNA isolation, cDNA library construction, and DNA sequencing. TCCSUP cells treated with vehicle (DMSO) or ASR488 were subjected to RNA isolation using TRIzol® (Invitrogen; Thermo Fisher Scientific, Inc., Waltham, Mass., USA) according to the manufacturer's protocol. Nano Photometer® spectrophotometer (Implen, Inc., Westlake Village, Calif., USA) was used to measure the RNA concentration and purity of the samples. A cDNA library was then constructed using an NEB Next® Ultra™ RNA Library Prep kit for Illumina® (New England Biolabs, Inc., Ipswich, Mass., USA) by Novogene Bioinformatics Technologies Co. Ltd. (Beijing, China) following the manufacturer's protocols. Subsequently, polymerase chain reaction (PCR) was, Universal PCR primers, and Index (X) Primer for double-stranded cDNA amplification. The PCR products generated for PCR performed using Phusion High Fidelity DNA polymerase were purified using the AMPure XP system, and Agilent Bioanalyzer 2100 system was used to analyze the library quality. The cDNA library was sequenced using an Illumina Hiseq 2000/2500 platform and 100 bp/50 bp single-end reads were generated.
Data Analysis. Bioinformatics analysis was performed using a combination of programs including STAR, HTseq, Cufflink, and our wrapped scripts. Tophat program was used to parse the alignments and DESeq2/edgeR was utilized to ascertain differential expressions. To determine GO and KEGG enrichment Cluster Profiler was used.
For DESeq2 with biological replicates: DESeq2 R package (2_1.6.3) was used to analyze differential expression between the ASR488 treated and control groups (two biological replicates per condition). The p-values obtained from the analysis were adjusted using the Benjamini and Hochberg's approach so that the false discovery rate (FDR) can be controlled. The genes having adjusted p-value <0.05 were assigned as differentially expressed.
For edge R without biological replicates: EdgeR program package (3.16.5) was used to adjust the read counts for each sequenced library before differential gene expression analysis, through one scaling normalized factor. The p-values were adjusted using the Benjamini and Hochberg method. […] The Venn diagrams were prepared using the function Venn diagram in R based on the gene list for different groups.

TCCSUP cells [6] = assay: qRT-PCR of top upregulated genes; assay type: cell-based; conditions: vs vehicle (DMSO)
From the text: The blue dots represent the genes that are without any significant diversity. […] The sum of the numbers in each large circle are the total number of genes in ASR488-treated or vehicle-treated TCCSUP cells, and the common genes among the samples are represented in the overlapping part.

CPEB1 = CPEB1 (Homo sapiens, UniProt Q9BZB8); assay: scanning fluorimetry with purified CPEB1 protein; assay type: binding
CPEB1, sequence (Q9BZB8 whole entry): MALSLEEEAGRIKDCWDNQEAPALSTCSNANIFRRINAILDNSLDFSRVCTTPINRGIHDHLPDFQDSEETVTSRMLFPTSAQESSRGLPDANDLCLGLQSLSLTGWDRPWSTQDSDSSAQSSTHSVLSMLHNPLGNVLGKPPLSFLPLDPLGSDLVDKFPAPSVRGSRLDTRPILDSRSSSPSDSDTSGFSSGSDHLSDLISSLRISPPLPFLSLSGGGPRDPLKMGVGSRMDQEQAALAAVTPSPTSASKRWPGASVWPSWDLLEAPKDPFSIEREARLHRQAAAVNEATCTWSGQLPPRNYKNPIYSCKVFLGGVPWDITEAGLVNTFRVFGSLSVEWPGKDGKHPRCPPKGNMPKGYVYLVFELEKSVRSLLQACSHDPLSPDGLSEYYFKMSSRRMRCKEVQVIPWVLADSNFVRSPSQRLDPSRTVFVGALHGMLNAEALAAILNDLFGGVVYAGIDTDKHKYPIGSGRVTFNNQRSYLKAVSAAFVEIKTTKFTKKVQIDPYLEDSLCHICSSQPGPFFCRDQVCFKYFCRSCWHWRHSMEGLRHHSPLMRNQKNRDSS
From the text: (FIG. 9B) ASR488 treatment induces p53 independent p27 upregulation in Bladder Cancer cells. (FIG. 9C) The result is GO/G1 cell cycle arrest in ASR488 treated Bladder Cancer Cells. (FIG. 9D) p27 upregulation is due to CPEB1 induction by overexpressing CPEB1 in TCCSUP cells.

normal BCa cells = assay: toxicity to normal cells; assay type: cell-based
[7] = test system: CPEB1 knockdown TCCSUP cells; assay: cell death in CPEB1 siRNA knockdown cells; assay type: cell-based
From the text: To analyze whether ASR488 treatment can induce p27 mediated cell death in CPEB1 knockdown bladder cancer cells, we knocked down CPEB1 with SiRNA in TCCSUP cells. (FIG. 11A) ASR488 treatment was unable to restore CPEB1 expression in CPEB1 knockdown cells. Moreover, P27 expression corresponded with CPEB1 expression pattern in the Knockdown cells.

MDA-MB-231 TNBC cells = assay: cell viability assay; assay type: cell-based; conditions: 1/20th of IC50 of DOX alone
Method: Synergistic effects of combinations were calculated via isobologram analysis.

[8] = test system: Notch 1 activation in MDA-MB-231 TNBC cells; assay: Western blot of NICD and HES1; assay type: cell-based; conditions: vs vehicle treated controls

Structure (SMILES): CC(C)C[C@@H](C=O)NC(=O)[C@H](CC(C)C)NC(=O)[C@H](CC(C)C)NC(=O)OCc1ccccc1 [MG-132, reference compound] (Cbz-Leu-Leu-Leu-aldehyde)
- ubiquitin expression (ubiquitin in ALDH+ cells): higher level of ubiquitin

Structure (SMILES): CC1=C(CO)C(=O)O[C@@H]([C@@H](C)[C@H]2CC[C@H]3[C@@H]4C[C@H]5O[C@]56[C@@H](OC(=O)c5cccs5)C=CC(=O)[C@]6(C)[C@H]4CC[C@]23C)C1 [ASR488]
- IC50 (HT1376 cells [1]; HT1376, 24 h): 1280 nM
- IC50 (HT1376 cells [1]; HT1376, 48 h): 750 nM
- IC50 (HT1376 cells [1]; HT1376, 72 h): 850 nM
- IC50 (TCCSUP cells [2]; 24 h): 800 nM
- IC50 (TCCSUP cells [2]; 48 h): 480 nM
- IC50 (TCCSUP cells [2]; 72 h): 450 nM
- apoptosis (HT1376 cells [3]): 23.2%
- apoptosis (TCCSUP cells [4]): 30.5%
- Log2 (fold-change) ACTG2 (TCCSUP cells [5]; gene ACTG2, treated TCCSUP cells): 3.0293
- Log2 (fold-change) BBOX1 (TCCSUP cells [5]; gene BBOX1, treated TCCSUP cells): −2.2384
- Log2 (fold-change) CMPK2 (TCCSUP cells [5]; gene CMPK2, treated TCCSUP cells): −1.8470
- Log2 (fold-change) CPEB1 (TCCSUP cells [5]; gene CPEB1, treated TCCSUP cells): 6.3347
- Log2 (fold-change) CYP4F11 (TCCSUP cells [5]; gene CYP4F11, treated TCCSUP cells): 8.3568
- Log2 (fold-change) DDX60 (TCCSUP cells [5]; gene DDX60, treated TCCSUP cells): −2.5069
- Log2 (fold-change) FOS (TCCSUP cells [5]; gene FOS, treated TCCSUP cells): −1.9465
- Log2 (fold-change) GBP4 (TCCSUP cells [5]; gene GBP4, treated TCCSUP cells): −2.2704
- Log2 (fold-change) GNGT2 (TCCSUP cells [5]; gene GNGT2, treated TCCSUP cells): 2.5802
- Log2 (fold-change) HSPA6 (TCCSUP cells [5]; gene HSPA6, treated TCCSUP cells): 3.5985
- Log2 (fold-change) IFI44L (TCCSUP cells [5]; gene IFI44L, treated TCCSUP cells): −1.9791
- Log2 (fold-change) IFIT2 (TCCSUP cells [5]; gene IFIT2, treated TCCSUP cells): −1.8473
- Log2 (fold-change) IL11 (TCCSUP cells [5]; gene IL11, treated TCCSUP cells): 2.9265
- Log2 (fold-change) MAP1A (TCCSUP cells [5]; gene MAP1A, treated TCCSUP cells): 2.1205
- Log2 (fold-change) OASL (TCCSUP cells [5]; gene OASL, treated TCCSUP cells): −1.9737
- Log2 (fold-change) RSAD2 (TCCSUP cells [5]; gene RSAD2, treated TCCSUP cells): −2.2235
- Log2 (fold-change) SFN (TCCSUP cells [5]; gene SFN, treated TCCSUP cells): 3.7239
- Log2 (fold-change) SPHK1 (TCCSUP cells [5]; gene SPHK1, treated TCCSUP cells): 4.6389
- Log2 (fold-change) STEAP4 (TCCSUP cells [5]; gene STEAP4, treated TCCSUP cells): −1.8141
- Log2 (fold-change) TAGLN (TCCSUP cells [5]; gene TAGLN, treated TCCSUP cells): 2.3661
- CPEB1 upregulation by qRT-PCR (TCCSUP cells [6]): 36 fold
- CYP4F11 upregulation by qRT-PCR (TCCSUP cells [6]): 15.8 fold
- IL11 upregulation by qRT-PCR (TCCSUP cells [6]): 30 fold
- SFN upregulation by qRT-PCR (TCCSUP cells [6]): 20.12 fold
- change of Tm of bound CPEB1 (CPEB1): 9 °C
- toxicity to normal cells (normal BCa cells): non-toxic
- cell death in CPEB1 knockdown cells [7]: did not induced cell death

Structure (SMILES): COc1cccc2c1C(=O)c1c(O)c3c(c(O)c1C2=O)C[C@@](O)(C(=O)CO)C[C@@H]3O[C@H]1C[C@H](N)[C@H](O)[C@H](C)O1 [DOX, Doxorubicin, reference compound]
- growth inhibition alone (MDA-MB-231 TNBC cells): did not inhibit the growth
- Notch 1 activation (NICD and HES 1 levels) [8]: induction of Notch 1 activation
